For 16 compounds, IC50 results are on record in patent publication US9890185B2, “Urea derivatives useful as kinase inhibitors” (Respivert Limited, priority 2013, dated 2018).

Molecules are shown by their SMILES.

Experiment [1] concerns PBMCs. The experiment can be described thus: LPS-induced IL-8 release in PBMC cells (assay b). Particulars: Homo sapiens, PBMC; LPS-stimulated PBMCs; read-out: IC50 Values for Inhibition of Cytokine Release, PBMCs IL-8. It counts as cell-based, human. The procedure, abridged:
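Human PBMCs from healthy donors, isolated by density gradient, were pretreated with compound for 2 h and then stimulated with 1 ng/mL LPS (E. coli 0111:B4) for 24 h at 37° C, 5% CO2. Supernatant IL-8 and TNFα were measured by sandwich ELISA, and IC50 was taken from the dose-response curve.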

In experiment [2] the test system is PBMCs. The experiment can be described thus: IFN gamma release in CD3/CD28 stimulated PBMC cells (assay c). It counts as cell-based. Particulars: Homo sapiens, read-out: IC50 Values for Inhibition of Cytokine Release, PBMCs IFNγ. In a few lines:
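Healthy-donor PBMCs, isolated by density gradient, were plated in wells pre-coated with anti-CD3 (0.3 μg/mL) and anti-CD28 (3 μg/mL) antibodies, then exposed to compound for 3 days under normal culture conditions. IL-2 and IFN gamma in supernatants were measured by sandwich ELISA; IC50 taken from the dose-response curve.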

Experiment [3] deals with p38 MAPKα isoform (MAPK14) (Homo sapiens (Human), UniProt Q16539). Put plainly: p38 MAPKα enzyme inhibition (FRET, Z-LYTE, Method 2). It counts as biochemical. In a few lines:
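Z-LYTE FRET: p38 MAPKα (80 ng/mL for Method 1, 200 ng/mL for Method 2, pre-dilution) preincubated 2 hr RT with compound (4–0.004 μg/mL solutions), activity read via MAPKAP-K2 phosphorylation after 1 hr RT and 1 hr protease development. Coumarin/fluorescein ratio gives phosphorylation; % inhibition versus uninhibited control, IC50 from concentration-response curve.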

Chain of p38 MAPKα isoform (MAPK14) (Q16539 whole entry, canonical isoform): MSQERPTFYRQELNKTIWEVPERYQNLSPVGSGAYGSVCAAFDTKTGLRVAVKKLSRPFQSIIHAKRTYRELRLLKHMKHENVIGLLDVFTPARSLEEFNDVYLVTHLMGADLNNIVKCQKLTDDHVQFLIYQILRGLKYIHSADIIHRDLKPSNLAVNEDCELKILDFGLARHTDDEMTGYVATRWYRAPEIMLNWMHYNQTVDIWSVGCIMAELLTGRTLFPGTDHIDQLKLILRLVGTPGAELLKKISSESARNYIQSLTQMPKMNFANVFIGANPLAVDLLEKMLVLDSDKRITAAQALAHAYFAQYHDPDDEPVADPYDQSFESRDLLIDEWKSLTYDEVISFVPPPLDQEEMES

On to `COc1cc(CO)cc(Nc2cc(Oc3ccc(NC(=O)Nc4cc(C(C)(C)C)cc(CC(N)=O)c4OC)c4ccccc34)ccn2)c1` [38(m), 2-(5-(tert-Butyl)-3-(3-(4-((2-((3-(hydroxymethyl)-5-methoxyphenyl)amino)pyridin-4-yl)oxy)naphthalen-1-yl)ureido)-2-methoxyphenyl)acetamide], for which the half-maximal inhibitory concentration (IC50) (commonly the concentration that gives 50% inhibition) in experiment [1] amounted to 2 nM; in experiment [2] it was 7 nM; in experiment [3] it was 48 nM.

As for `COc1c(NC(=O)Nc2ccc(Oc3ccnc(Nc4cnn(C)n4)n3)c3ccccc23)cc(C(C)(C)C)cc1P(C)(C)=O` [15(x), 1-(5-(tert-butyl)-3-(dimethylphosphoryl)-2-methoxyphenyl)-3-(4-((2-((2-methyl-2H-1,2,3-triazol-4-yl)amino)pyrimidin-4-yl)oxy)naphthalen-1-yl)urea], the half-inhibitory concentration (IC50) was 6.1 nM in experiment [1], 35.9 nM in experiment [2] and 219 nM in experiment [3].

As for `COCCOCCOCCOc1cc(Nc2nccc(Oc3ccc(NC(=O)Nc4cc(C(C)(C)C)cc(C(=O)NCCN5CCOCC5)c4OC)c4ccccc34)n2)cc(OC)c1` [Example 8, 5-(tert-Butyl)-2-methoxy-3-(3-(4-((2-((3-methoxy-5-(2-(2-(2-methoxyethoxy)ethoxy)-ethoxy)phenyl)amino)pyrimidin-4-yl)oxy)naphthalen-1-yl)ureido)-N-(2-morpholinoethyl)-benzamide], the results for the IC50 in experiment [1], in experiment [2] and in experiment [3] were 1.3 nM, 2.2 nM and 188 nM, respectively.

As for `COc1cccc(Nc2cc(Oc3ccc(NC(=O)Nc4cc(C(C)(C)C)cc(CC(N)=O)c4OC)c4ccccc34)ccn2)c1` [Example 33, 2-(5-(tert-Butyl)-2-methoxy-3-(3-(4-((2-((3-methoxyphenyl)amino)pyridin-4-yl)oxy)naphthalen-1-yl)ureido)phenyl)acetamide], the concentration for half-maximal inhibition (IC50) in experiment [1] amounted to 1.7 nM; in experiment [2], 11 nM; in experiment [3], 109 nM.

Regarding `COc1c(CP(C)(C)=O)cc(C(C)(C)C)cc1NC(=O)Nc1ccc(Oc2ccnc(Nc3ccccc3)c2)c2ccccc12` [Example 24, 1-(5-(tert-Butyl)-3-((dimethylphosphoryl)methyl)-2-methoxyphenyl)-3-(4-((2-(phenylamino)-pyridin-4-yl)oxy)naphthalen-1-yl)urea], the IC50 in experiment [1] was 3.1 nM; in experiment [2], 64 nM; in experiment [3], 220 nM.

Take `COc1c(C[S+](C)[O-])cc(C(C)(C)C)cc1NC(=O)Nc1ccc(Oc2ccnc(Nc3ccccc3)c2)c2ccccc12` (stereo not drawn) [Example 25, 1-(5-(tert-Butyl)-2-methoxy-3-((methylsulfinyl)methyl)phenyl)-3-(4-((2-(phenylamino)pyridin-4-yl)oxy)naphthalen-1-yl)urea]: the results for the IC50 in experiment [1], in experiment [2] and in experiment [3] were 5.3 nM, 29.5 nM and 323 nM, respectively.

On to `COc1cncc(Nc2cc(Oc3ccc(NC(=O)Nc4cc(C(C)(C)C)cc(CC(N)=O)c4OC)c4ccccc34)ccn2)c1` [38(n), 2-(5-(tert-butyl)-2-methoxy-3-(3-(4-((2-((5-methoxypyridin-3-yl)amino)pyridin-4-yl)oxy)naphthalen-1-yl)ureido)phenyl)acetamide], for which the half-maximal inhibitory concentration (IC50) is 1.4 nM in experiment [1], 14.1 nM in experiment [2] and 43 nM in experiment [3].

With `COc1c(NC(=O)Nc2ccc(Oc3ccnc(Nc4cccnc4)c3)c3ccccc23)cc(C(C)(C)C)cc1P(C)(C)=O` [15(ad), 1-(5-(tert-butyl)-3-(dimethylphosphoryl)-2-methoxyphenyl)-3-(4-((2-(pyridin-3-ylamino)pyridin-4-yl)oxy)naphthalen-1-yl)urea], the values for the IC50 in experiment [1], in experiment [2] and in experiment [3] were 3.7 nM, 16.2 nM and 181 nM, respectively.

Turning to `COc1c(CNC(C)=O)cc(C(C)(C)C)cc1NC(=O)Nc1ccc(Oc2ccnc(Nc3ccccc3)c2)c2ccccc12` [Example 35, N-(5-(tert-Butyl)-2-methoxy-3-(3-(4-((2-(phenylamino)pyridin-4-yl)oxy)naphthalen-1-yl)ureido)benzyl)acetamide], the 50% inhibitory concentration (IC50) in experiment [1] is 3.4 nM; in experiment [2], 10.9 nM; in experiment [3] it was 294 nM.

As to `COc1cc(Nc2cc(Oc3ccc(NC(=O)Nc4cc(C(C)(C)C)cc(CC(N)=O)c4OC)c4ccccc34)ccn2)ccn1` [38(k), 2-(5-(tert-Butyl)-2-methoxy-3-(3-(4-((2-((2-methoxypyridin-4-yl)amino)pyridin-4-yl)oxy)naphthalen-1-yl)ureido)phenyl)acetamide], the IC50 in experiment [1] was 2.1 nM; in experiment [2], 14.6 nM; in experiment [3], 152 nM.

Take `COc1cc(Nc2cc(Oc3ccc(NC(=O)Nc4cc(C(C)(C)C)cc([S+](C)[O-])c4OC)c4ccccc34)ccn2)ccc1C(=O)NCCN1CCOCC1` (stereo not drawn) [Example 72, 4-((4-((4-(3-(5-(tert-Butyl)-2-methoxy-3-(methylsulfinyl)phenyl)ureido)naphthalen-1-yl)oxy)pyridin-2-yl)amino)-2-methoxy-N-(2-morpholinoethyl)benzamide]: the results for the IC50 in experiment [1], in experiment [2] and in experiment [3] were 2.1 nM, 7.5 nM and 32 nM, respectively.

On to `COc1cc(F)cc(Nc2cc(Oc3ccc(NC(=O)Nc4cc(C(C)(C)C)cc(P(C)(C)=O)c4OC)c4ccccc34)ccn2)c1` [15(an), 1-(5-(tert-butyl)-3-(dimethylphosphoryl)-2-methoxyphenyl)-3-(4-((2-((3-fluoro-5-methoxyphenyl)amino)pyridin-4-yl)oxy)naphthalen-1-yl)urea], for which the half-inhibitory concentration (IC50) in experiment [1] worked out at 2.7 nM; in experiment [2], 6.2 nM; in experiment [3], 344 nM.

For `COc1cc(Nc2cc(Oc3ccc(NC(=O)Nc4cc(C(C)(C)C)cc(CC(N)=O)c4OC)c4ccccc34)ccn2)ccc1C(=O)NCC(CO)(CO)CO` [Example 73, 4-((4-((4-(3-(3-(2-Amino-2-oxoethyl)-5-(tert-butyl)-2-methoxyphenyl)ureido)naphthalen-1-yl)oxy)pyridin-2-yl)amino)-N-(3-hydroxy-2,2-bis(hydroxymethyl)propyl)-2-methoxybenzamide], the results for the 50% inhibitory concentration (IC50) in experiment [1], in experiment [2] and in experiment [3] were 1.5 nM, 6.3 nM and 31 nM, respectively.

Regarding `COc1c(CNC(C)=O)cc(C(C)(C)C)cc1NC(=O)Nc1ccc(Oc2ccnc(NCc3ccccn3)c2)c2ccccc12` [38(q), N-(5-(tert-Butyl)-2-methoxy-3-(3-(4-((2-((pyridin-2-ylmethyl)amino)pyridin-4-yl)oxy)naphthalen-1-yl)ureido)benzyl)acetamide], the IC50 was 1.4 nM in experiment [1], 26.1 nM in experiment [2] and 6 nM in experiment [3].

For the compound `COc1c(NC(=O)Nc2ccc(Oc3ccnc(Nc4cc(C)cc(C)c4)c3)c3ccccc23)cc(C(C)(C)C)cc1P(C)(C)=O` [Example 28, 1-(5-(tert-Butyl)-3-(dimethylphosphoryl)-2-methoxyphenyl)-3-(4-((2-((3,5-dimethylphenyl)-amino)pyridin-4-yl)oxy)naphthalen-1-yl)urea], the IC50 is 2.5 nM in experiment [1], 1.4 nM in experiment [2] and 254 nM in experiment [3].

`COc1c(CC(N)=O)cc(C(C)(C)C)cc1NC(=O)Nc1ccc(Oc2ccnc(NCc3ccccn3)c2)c2ccccc12` [38(d), 2-(5-(tert-Butyl)-2-methoxy-3-(3-(4-((2-((pyridin-2-ylmethyl)amino)pyridin-4-yl)oxy)naphthalen-1-yl)ureido)phenyl)acetamide]: the concentration for half-maximal inhibition (IC50) was 4.5 nM in experiment [1], 106 nM in experiment [2] and 13 nM in experiment [3].
